Experimental data reported in publication PMC8878317, “Chemogenomics identifies acetyl-coenzyme A synthetase as a target for malaria treatment and prevention” (Cell Chemical Biology, 2022).

Tested on: P. falciparum 3D7 parasites
Assay: Metabolomic profiling of compound-treated parasites (LC/MS);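 as to Metabolite data: 3-Phosphoglycerate: Log2 fold change in abundance versus untreated parasite controls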;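 as to Metabolite data: Myo-Inositol: Log2 fold change in abundance versus untreated parasite controls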;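 as to Metabolite data: N-Carbamoyl-L-Aspartate: Log2 fold change in abundance versus untreated parasite controls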;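 as to Metabolite data: Nicotinate: Log2 fold change in abundance versus untreated parasite controls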
Assay type: cell-based
Parameters: Metabolite data: dTMP / Metabolite data: GMP / Metabolite data: S-Adenosyl-L-Homocysteine / Metabolite data: 1_3-Bisphosphoglyceric acid: scale not given here
Summary of the method: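 Magnetically purified trophozoites (1×10^8 parasites/mL) recovered 1 h in RPMI 1640, incubated a further 2.5 h, quenched in 90% methanol with labeled aspartate. Extracts analysed by reverse-phase C18 LC with negative-mode Orbitrap MS; peak areas normalized to internal standards, blank-subtracted and averaged by condition.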

Compound: CCc1nc(N)nc(N)c1-c1ccc(Cl)cc1 [Pyrimethamine]
- Metabolite data: 1_3-Bisphosphoglyceric acid: 0
- Metabolite data: 2_3-Diphosphoglyceric acid: 0.1448
- Metabolite data: 3-Phosphoglycerate: 0.06527
- Metabolite data: 4-Aminobutyrate: 0.06366
- Metabolite data: 4-Phosphopantothenate: 0.159
- Metabolite data: 4-phosphopantetheine: 0
- Metabolite data: 5-aminopentanoic acid: 0
- Metabolite data: 5-phosphoribosyl-1-pyrophosphate: 0
- Metabolite data: 6-Phospho-D-Gluconate: 0.08879
- Metabolite data: ADP-D-Glucose: 0.2656
- Metabolite data: Acetyl-CoA: 0.1996
- Metabolite data: Acetyllysine: 0.2921
- Metabolite data: Aconitate: 0.4355
- Metabolite data: CDP: 0.1713
- Metabolite data: CDP-Ethanolamine: 1.312
- Metabolite data: CDP-choline: 0
- Metabolite data: CMP: 0.005842
- Metabolite data: CTP: -0.1699
- Metabolite data: Citrate/Isocitrate: -0.2585
- Metabolite data: Cyclic-AMP: 0.06421
- Metabolite data: Dihydroorotate: 1.359
- Metabolite data: FAD: 0.05439
- Metabolite data: FMN: -0.4759
- Metabolite data: Fructose-1,6-Bisphosphate: 0.2831
- Metabolite data: Fumarate: 0.3378
- Metabolite data: GDP: 0.005686
- Metabolite data: GMP: 0.1718
- Metabolite data: GTP: -0.6779
- Metabolite data: Glucose-1/6-Phosphate: 0.1953
- Metabolite data: Glutathione Disulfide: 0.3348
- Metabolite data: Hexose: 0
- Metabolite data: Hydroxyisocaproic acid: 0
- Metabolite data: Indole: -0.02333
- Metabolite data: Ketoleucine: 0
- Metabolite data: L-arginino-succinate: 0
- Metabolite data: Lactate: 0.8185
- Metabolite data: Malate: 0.5597
- Metabolite data: Myo-Inositol: 2.112
- Metabolite data: N-Acetyl-Glutamate: 0.1671
- Metabolite data: N-Acetyl-L-Alanine: 0.1511
- Metabolite data: N-Acetyl-L-Ornithine: 0.1555
- Metabolite data: N-Carbamoyl-L-Aspartate: 0.3085
- Metabolite data: NAD+: 0.008224
- Metabolite data: NADH: 4.9
- Metabolite data: NADP+: 0.03009
- Metabolite data: NADPH: 1.808
- Metabolite data: Nicotinate: 0.1972
- Metabolite data: Octulose 8/1-Phosphate: -0.1128
- Metabolite data: Orotate: 0.09092
- Metabolite data: PD: 0.177
- Metabolite data: PE: -0.01685
- Metabolite data: PEEK: 0
- Metabolite data: Phenol Red: 0
- Metabolite data: Pyroglutamic acid: 0.09576
- Metabolite data: S-Adenosyl-L-Homocysteine: 0.08183
- Metabolite data: S-methyl-5'-thioadenosine: 0.0579
- Metabolite data: SD: 0.04153
- Metabolite data: Sedoheptulose Bisphosphate: 0.1986
- Metabolite data: UDP: 0.2702
- Metabolite data: UDP-D-Glucose: 0.138
- Metabolite data: UDP-D-Glucuronate: 0.02668
- Metabolite data: UDP-N-Acetyl-Glucosamine: 0.1474
- Metabolite data: UMP: 0.1095
- Metabolite data: UTP: -0.3099
- Metabolite data: a-ketoglutarate: 0.2017
- Metabolite data: acetyl-aspartate: 0
- Metabolite data: arginine: 0
- Metabolite data: asparagine: 0
- Metabolite data: aspartate: 0
- Metabolite data: biotin: 0
- Metabolite data: chlorpropamide: 0
- Metabolite data: coenzyme A: 0
- Metabolite data: dAMP: -0.3497
- Metabolite data: dATP: 0.1703
- Metabolite data: dCDP: 0.2805
- Metabolite data: dCMP: 0.1423
- Metabolite data: dCTP: -0.258
- Metabolite data: dGDP/ADP: 0.2431
- Metabolite data: dGMP/AMP: -0.07108
- Metabolite data: dGTP/ATP: 0
- Metabolite data: dTDP: 0.3943
- Metabolite data: dTMP: 0.05289
- Metabolite data: dTTP: -0.1782
- Metabolite data: folate: 0
- Metabolite data: glucono-lactone: 0
- Metabolite data: glutamate: 0
- Metabolite data: glutamine: 0
- Metabolite data: glutathione: 0
- Metabolite data: histidine: 0
- Metabolite data: hydroxyproline/Aminolevulinate: 0
- Metabolite data: isoleucine: 0
- Metabolite data: leucine: 0
- Metabolite data: maleic acid: 0
- Metabolite data: methionine: 0
- Metabolite data: nicotinamide mononucleotide: 0
- Metabolite data: orotidine-5'-phosphate: 0

Compound: N#Cc1cc(NC(=O)[C@H]2c3ccccc3C(=O)N(CC(F)(F)F)[C@@H]2c2cccnc2)ccc1F [SJ733]
- Metabolite data: 1_3-Bisphosphoglyceric acid: 0
- Metabolite data: 2_3-Diphosphoglyceric acid: -1.405
- Metabolite data: 3-Phosphoglycerate: 0.1564
- Metabolite data: 4-Aminobutyrate: -0.6232
- Metabolite data: 4-Phosphopantothenate: -0.06384
- Metabolite data: 4-phosphopantetheine: 0
- Metabolite data: 5-aminopentanoic acid: 0
- Metabolite data: 5-phosphoribosyl-1-pyrophosphate: 0
- Metabolite data: 6-Phospho-D-Gluconate: -0.1307
- Metabolite data: ADP-D-Glucose: 0.2839
- Metabolite data: Acetyl-CoA: -0.6106
- Metabolite data: Acetyllysine: -2.328
- Metabolite data: Aconitate: 1.12
- Metabolite data: CDP: 0.04523
- Metabolite data: CDP-Ethanolamine: -0.09201
- Metabolite data: CDP-choline: 0
- Metabolite data: CMP: 1.401
- Metabolite data: CTP: -0.9536
- Metabolite data: Citrate/Isocitrate: 0.1284
- Metabolite data: Cyclic-AMP: -1.252
- Metabolite data: Dihydroorotate: -2.603
- Metabolite data: FAD: -1.458
- Metabolite data: FMN: -1.104
- Metabolite data: Fructose-1,6-Bisphosphate: -0.7765
- Metabolite data: Fumarate: 0.221
- Metabolite data: GDP: -2.218
- Metabolite data: GMP: -2.3136
- Metabolite data: GTP: -1.102
- Metabolite data: Glucose-1/6-Phosphate: -0.8546
- Metabolite data: Glutathione Disulfide: -0.003594
- Metabolite data: Hexose: 0
- Metabolite data: Hydroxyisocaproic acid: 0
- Metabolite data: Indole: 0.01538
- Metabolite data: Ketoleucine: 0
- Metabolite data: L-arginino-succinate: 0
- Metabolite data: Lactate: -1.557
- Metabolite data: Malate: 0.2276
- Metabolite data: Myo-Inositol: -4.078
- Metabolite data: N-Acetyl-Glutamate: -0.1913
- Metabolite data: N-Acetyl-L-Alanine: -1.649
- Metabolite data: N-Acetyl-L-Ornithine: -1.387
- Metabolite data: N-Carbamoyl-L-Aspartate: -4.081
- Metabolite data: NAD+: -0.3968
- Metabolite data: NADH: 0.5171
- Metabolite data: NADP+: -0.1788
- Metabolite data: NADPH: 3.012
- Metabolite data: Nicotinate: 0.6001
- Metabolite data: Octulose 8/1-Phosphate: -0.3837
- Metabolite data: Orotate: 0.7127
- Metabolite data: PD: -1.25
- Metabolite data: PE: -3.092
- Metabolite data: PEEK: -1.29
- Metabolite data: Phenol Red: 0
- Metabolite data: Pyroglutamic acid: -0.07146
- Metabolite data: S-Adenosyl-L-Homocysteine: -0.5514
- Metabolite data: S-methyl-5'-thioadenosine: -0.2796
- Metabolite data: SD: -3.659
- Metabolite data: Sedoheptulose Bisphosphate: -0.9288
- Metabolite data: UDP: -0.7526
- Metabolite data: UDP-D-Glucose: -0.1564
- Metabolite data: UDP-D-Glucuronate: -0.198
- Metabolite data: UDP-N-Acetyl-Glucosamine: 0.08301
- Metabolite data: UMP: -0.4316
- Metabolite data: UTP: -1.732
- Metabolite data: a-ketoglutarate: 0.4286
- Metabolite data: acetyl-aspartate: 0
- Metabolite data: arginine: 0
- Metabolite data: asparagine: 0
- Metabolite data: aspartate: 0
- Metabolite data: biotin: 0
- Metabolite data: chlorpropamide: 0
- Metabolite data: coenzyme A: 0
- Metabolite data: dAMP: 2.428
- Metabolite data: dATP: -0.7133
- Metabolite data: dCDP: 1.868
- Metabolite data: dCMP: 1.752
- Metabolite data: dCTP: 0.5805
- Metabolite data: dGDP/ADP: -2.35
- Metabolite data: dGMP/AMP: -1.067
- Metabolite data: dGTP/ATP: 0
- Metabolite data: dTDP: 2.593
- Metabolite data: dTMP: 4.089
- Metabolite data: dTTP: 1.546
- Metabolite data: folate: 0
- Metabolite data: glucono-lactone: 0
- Metabolite data: glutamate: 0
- Metabolite data: glutamine: 0
- Metabolite data: glutathione: 0
- Metabolite data: histidine: 0
- Metabolite data: hydroxyproline/Aminolevulinate: 0
- Metabolite data: isoleucine: 0
- Metabolite data: leucine: 0
- Metabolite data: maleic acid: 0
- Metabolite data: methionine: 0
- Metabolite data: nicotinamide mononucleotide: 0
- Metabolite data: orotidine-5'-phosphate: 0
